Source: patent publication US20250339385A1, “TOPICAL FORMULATION OF DIMETHYLCURCUMIN” (ANNJI PHARMACEUTICAL CO., LTD., priority 2021, published 2025)

Assay: Solubility of API (Formula I) in aqueous system / solvents
Type: physicochemical
Method: When the API of Formula I is in the aqueous system, it forms crystals and precipitates out of solution. To investigate a compatible matrix that allows greater Formula I solubility, various systems containing Formula I were stored at room temperature for 24 hours and were examined under a polarized light microscope to observe the presence or absence of Formula I crystal precipitation.

For dimethylcurcumin [Formula I], which “solubility of API in aqueous phase (aqueous system)” value (aqueous system) is on record?
The value was “practically insoluble”.

What about the “solubility of API in diethylene glycol monoethyl ether” value (diethylene glycol monoethyl ether) of the same substance?
The value was “good solubility”.
